The values that follow come from patent publication US9296745B2, “Diacylglycerol acyltransferase 2 inhibitors” (Pfizer Inc., priority 2012, dated 2016).

The assay concerns the target Human DGAT2 (hDGAT2) (Homo sapiens (Human), UniProt Q96PD7). In words: In vitro DGAT2 assay, IC50 determination with hDGAT2 membrane fraction. In kind it is biochemical. As to conditions: read-out: DGAT2 IC50. The procedure, abridged:
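CHAPS-solubilized membrane fraction of FLAG-tagged hDGAT2 from baculovirus-infected SF9 cells (0.01 mg/mL) in 100 mM Hepes-NaOH pH 7.4, 20 mM MgCl2, 200 nM methyl arachidonyl fluorophosphonate; compounds pre-incubated 20 min with 0.04% BSA. Reaction 40 min at room temperature, stopped with H3PO4. [^14C]tridecanoylglycerol in organic phase counted; 11-point geometric mean IC50.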

Setting [1] is: geometric mean, background for complete inhibition of DGAT2 obtained with 50 μM (1R,2R)-2-({3′-Fluoro-4′-[(6-fluoro-1,3-benzothiazol-2-yl)amino]-1,1′-biphenyl-4-yl}carbonyl)cyclopentanecarboxylic acid.

Molecules are shown by their SMILES. Read-outs that look alike come from different tables or passages of the source.

Human DGAT2 (hDGAT2), sequence (Q96PD7 whole entry): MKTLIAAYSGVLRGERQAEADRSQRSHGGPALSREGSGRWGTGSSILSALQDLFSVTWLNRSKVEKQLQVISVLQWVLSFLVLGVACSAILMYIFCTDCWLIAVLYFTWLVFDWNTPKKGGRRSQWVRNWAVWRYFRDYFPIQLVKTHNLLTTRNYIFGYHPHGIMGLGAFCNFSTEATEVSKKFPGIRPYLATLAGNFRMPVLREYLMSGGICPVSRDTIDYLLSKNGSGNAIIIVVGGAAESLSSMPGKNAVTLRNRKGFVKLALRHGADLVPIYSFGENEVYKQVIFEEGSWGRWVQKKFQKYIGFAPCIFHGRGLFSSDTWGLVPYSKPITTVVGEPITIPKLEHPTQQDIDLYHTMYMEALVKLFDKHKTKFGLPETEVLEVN

As to `c1cc(-c2nc3ccc(N4CCC[C@@H](c5ncc6n5CCC6)C4)nc3[nH]2)nc(C2CC2)n1` [Example 134, (R)-2-(2-Cyclopropylpyrimidin-4-yl)-5-(3-(6,7-dihydro-5H-pyrrolo[1,2-c]imidazol-3-yl)piperidin-1-yl)-3H-imidazo[4,5-b]pyridine], the half-inhibitory concentration (IC50) under setting [1] was determined as 210 nM.
Still for that read-out and setting: for `c1cc(-c2nc3ccc(N4CCC[C@H](c5ncc6n5CCC6)C4)nc3[nH]2)nc(C2CC2)n1` [Example 135, (S)-2-(2-cyclopropylpyrimidin-4-yl)-5-(3-(6,7-dihydro-5H-pyrrolo[1,2-c]imidazol-3-yl)piperidin-1-yl)-3H-imidazo[4,5-b]pyridine] the value was 4240 nM.
The same measure, in the same setting: for `O=C([C@@H]1CCCN(c2nc3[nH]c(-c4ccnc(C5CC5)n4)nc3cc2F)C1)N1CCCC1` [Example 136, (R)-(1-(2-(2-Cyclopropylpyrimidin-4-yl)-6-fluoro-3H-imidazo[4,5-b]pyridin-5-yl)piperidin-3-yl)(pyrrolidin-1-yl)methanone] the value was 6.32 nM; for `O=C([C@@H]1CCCN(c2ccc3nc(C4(N5CCOCC5=O)CC4)[nH]c3n2)C1)N1CCCC1` [Example 137, (R)-4-(1-(5-(3-(Pyrrolidine-1-carbonyl)piperidin-1-yl)-3H-imidazo[4,5-b]pyridin-2-yl)cyclopropyl)morpholin-3-one], 1280 nM; for `O=C([C@@H]1CCCN(c2cnc3nc(-c4ccnc(C5CC5)n4)[nH]c3n2)C1)N1CCCC1` [Example 138, (R)-(1-(2-(2-Cyclopropylpyrimidin-4-yl)-1H-imidazo[4,5-b]pyrazin-6-yl)piperidin-3-yl)(pyrrolidin-1-yl)methanone], 71.6 nM.
Take `O=C([C@@H]1CCCN(c2ccc3nc(-c4cccc(C5(O)CC5)n4)[nH]c3n2)C1)N1CCCC1` [Example 139, (R)-(1-(2-(6-(1-Hydroxycyclopropyl)pyridin-2-yl)-3H-imidazo[4,5-b]pyridin-5-yl)piperidin-3-yl)(pyrrolidin-1-yl)methanone]: under setting [1], the half-maximal inhibitory concentration (IC50) is 62.3 nM.
On the same count and under the same terms, under `CC(C)(O)c1csc(-c2nc3ccc(N4CCC[C@@H](C(=O)N5CCCC5)C4)nc3[nH]2)n1` [Example 140, (R)-(1-(2-(4-(2-Hydroxypropan-2-yl)thiazol-2-yl)-3H-imidazo[4,5-b]pyridin-5-yl)piperidin-3-yl)(pyrrolidin-1-yl)methanone] stands 207 nM.
`O=C([C@H]1CN(c2ccc3nc(-c4cccc(C5CC5)n4)[nH]c3n2)CCO1)N1CCCC1` [Example 142, (R)-(4-(2-(6-Cyclopropylpyridin-2-yl)-3H-imidazo[4,5-b]pyridin-5-yl)morpholin-2-yl)(pyrrolidin-1-yl)methanone]: under setting [1], the concentration for half-maximal inhibition (IC50) was found to be 24.8 nM.
The same measure, in the same setting: for `O=C([C@H]1CN(c2ccc3nc(-c4cccc(C(F)(F)F)n4)[nH]c3n2)CCO1)N1CCCC1` [Example 143, (R)-Pyrrolidin-1-yl(4-(2-(6-(trifluoromethyl)pyridin-2-yl)-3H-imidazo[4,5-b]pyridin-5-yl)morpholin-2-yl)methanone] the value was 511 nM; for `FC(F)Oc1cccc(-c2nc3ccc(N4CCO[C@H](c5ccccn5)C4)nc3[nH]2)c1` [Example 145, (S)-4-(2-(3-(difluoromethoxy)phenyl)-3H-imidazo[4,5-b]pyridin-5-yl)-2-(pyridin-2-yl)morpholine], 411 nM; for `O=C([C@H]1CN(c2ccc3nc(-c4cncc(C5CC5)n4)[nH]c3n2)CCO1)N1CCCC1` [Example 146, (R)-(4-(2-(6-Cyclopropylpyrazin-2-yl)-3H-imidazo[4,5-b]pyridin-5-yl)morpholin-2-yl)(pyrrolidin-1-yl)methanone], 401 nM.
Same read-out and setting: for `O=C([C@@H]1CCCN(c2ccc3nc(-c4ccnc(C5CCC5)n4)[nH]c3n2)C1)N1CCCC1` [Example 147, (R)-(1-(2-(2-Cyclobutylpyrimidin-4-yl)-3H-imidazo[4,5-b]pyridin-5-yl)piperidin-3-yl)(pyrrolidin-1-yl)methanone] the value was 9.21 nM; for `O=C([C@@H]1CCCN(c2ccc3nc(-c4nccc(C5CC5)n4)[nH]c3n2)C1)N1CCOCC1` [Example 149, (R)-(1-(2-(4-Cyclopropylpyrimidin-2-yl)-3H-imidazo[4,5-b]pyridin-5-yl)piperidin-3-yl)(morpholino)methanone], 766 nM; for `CN(C)C(=O)[C@@H]1CCCN(c2ccc3nc(-c4cccc(C5CC5)n4)[nH]c3n2)C1` [Example 150, (R)-1-(2-(6-Cyclopropylpyridin-2-yl)-3H-imidazo[4,5-b]pyridin-5-yl)-N,N-dimethylpiperidine-3-carboxamide], 47.3 nM.
As to `Clc1cccc(-c2nc3ccc(N4CCO[C@@H](c5ccccn5)C4)nc3[nH]2)c1` [Example 152, (R)-4-(2-(3-chlorophenyl)-3H-imidazo[4,5-b]pyridin-5-yl)-2-(pyridin-2-yl)morpholine], the IC50 came to 285 nM.
Regarding `O=C([C@@H]1CCCN(c2ccc3nc(-c4cccc(C5CC5)n4)[nH]c3n2)C1)N1CCOCC1` [Example 153, (R)-(1-(2-(6-Cyclopropylpyridin-2-yl)-3H-imidazo[4,5-b]pyridin-5-yl)piperidin-3-yl)(morpholino)methanone], the IC50 turned out to be 48.1 nM.
Consider `O=C([C@@H]1CCCN(c2ccc3nc(-c4cccc(Cl)c4)[nH]c3n2)C1)N1CCOCC1` [Example 154, (R)-(1-(2-(3-Chlorophenyl)-3H-imidazo[4,5-b]pyridin-5-yl)piperidin-3-yl)(morpholino)methanone], for which the 50% inhibitory concentration (IC50) was 40.5 nM.
Consider `O=C([C@@H]1CCCN(c2ccc3nc(-c4cccc(OC(F)F)c4)[nH]c3n2)C1)N1CCOCC1` [Example 155, (R)-(1-(2-(3-(Difluoromethoxy)phenyl)-3H-imidazo[4,5-b]pyridin-5-yl)piperidin-3-yl)(morpholino)methanone], for which the concentration for half-maximal inhibition (IC50) came out at 35.6 nM.
On to `N#CC1(c2cccc(-c3nc4ccc(N5CCC[C@@H](C(=O)N6CCCC6)C5)nc4[nH]3)n2)CC1` [Example 156, (R)-1-(6-(5-(3-(Pyrrolidine-1-carbonyl)piperidin-1-yl)-1H-imidazo[4,5-b]pyridin-2-yl)pyridin-2-yl)cyclopropanecarbonitrile], for which the IC50 under setting [1] is 275 nM.
The same measure, in the same setting: for `CC(c1ccccc1)c1nc2ccc(N3CCC[C@@H](C(=O)N4CCCC4)C3)nc2[nH]1` (stereo partly drawn) [Example 157, (R)-(1-(2-(1-Phenylethyl)-3H-imidazo[4,5-b]pyridin-5-yl)piperidin-3-yl)(pyrrolidin-1-yl)methanone] the value was 211 nM; for `O=C([C@@H]1CCCN(c2ccc3nc(-c4cccc(C5CC5)n4)[nH]c3n2)C1)N1CC=CC1` [Example 158, (R)-(1-(2-(6-Cyclopropylpyridin-2-yl)-3H-imidazo[4,5-b]pyridin-5-yl)piperidin-3-yl)(2,5-dihydro-1H-pyrrol-1-yl)methanone], 3.58 nM; for `O=C([C@@H]1CCCN(c2ncc3nc(-c4ccnc(C5CC5)n4)[nH]c3n2)C1)N1CCCC1` [Example 159, (R)-(1-(8-(2-Cyclopropylpyrimidin-4-yl)-9H-purin-2-yl)piperidin-3-yl)(pyrrolidin-1-yl)methanone], 28.2 nM.
Regarding `O=C([C@@H]1CCCN(c2ccc3nc(C4(c5ccc[n+]([O-])c5)CC4)[nH]c3n2)C1)N1CCCC1` [Example 160, (R)-3-(1-(5-(3-(Pyrrolidine-1-carbonyl)piperidin-1-yl)-3H-imidazo[4,5-b]pyridin-2-yl)cyclopropyl)pyridine 1-oxide], the IC50 was found to be 789 nM.
In the case of `O=C([C@@H]1CCCN(c2ccc3nc(C4(c5ccncc5)CC4)[nH]c3n2)C1)N1CCCC1` [Example 161, (R)-(1-(2-(1-(Pyridin-4-yl)cyclopropyl)-3H-imidazo[4,5-b]pyridin-5-yl)piperidin-3-yl)(pyrrolidin-1-yl)methanone], under setting [1], the IC50 was 218 nM.
Still for that read-out and setting: under `Cc1cc(N2CCC[C@@H](C(=O)N3CCCC3)C2)nc2[nH]c(-c3ccnc(C4CC4)n3)nc12` [Example 162, (R)-(1-(2-(2-Cyclopropylpyrimidin-4-yl)-7-methyl-3H-imidazo[4,5-b]pyridin-5-yl)piperidin-3-yl)(pyrrolidin-1-yl)methanone] stands 434 nM.
With `O=C([C@@H]1CCCN(c2ccc3nc(-c4cccc(-c5nnn[nH]5)c4)[nH]c3n2)C1)N1CCCC1` [Example 163, (R)-(1-(2-(3-(2H-Tetrazol-5-yl)phenyl)-3H-imidazo[4,5-b]pyridin-5-yl)piperidin-3-yl)(pyrrolidin-1-yl)methanone], under setting [1], the IC50 came out at 3400 nM.
Still for that read-out and setting: under `CN(C)C(=O)[C@H]1CN(c2ccc3nc(-c4ccnc(C5CC5)n4)[nH]c3n2)CC(F)(F)C1` [Example 164, (R)-1-(2-(2-Cyclopropylpyrimidin-4-yl)-3H-imidazo[4,5-b]pyridin-5-yl)-5,5-difluoro-N,N-dimethylpiperidine-3-carboxamide] stands 2800 nM; under `CN(C)C(=O)[C@@H]1CN(c2ccc3nc(-c4ccnc(C5CC5)n4)[nH]c3n2)CC(F)(F)C1` [Example 165, (S)-1-(2-(2-cyclopropylpyrimidin-4-yl)-3H-imidazo[4,5-b]pyridin-5-yl)-5,5-difluoro-N,N-dimethylpiperidine-3-carboxamide], 16500 nM; under `O=C([C@@H]1CCCN(c2ccc3nc(C(F)(F)c4ccccc4)[nH]c3n2)C1)N1CCCC1` [Example 166, (R)-(1-(2-(Difluoro(phenyl)methyl)-3H-imidazo[4,5-b]pyridin-5-yl)piperidin-3-yl)(pyrrolidin-1-yl)methanone], 2280 nM.
On the same count and under the same terms, for `c1cc(-c2nc3ccc(N4CCC[C@H](c5nnc6n5CCC6)C4)nc3[nH]2)nc(C2CC2)n1` [Example 168, (S)-2-(2-cyclopropylpyrimidin-4-yl)-5-(3-(6,7-dihydro-5H-pyrrolo[2,1-c][1,2,4]triazol-3-yl)piperidin-1-yl)-3H-imidazo[4,5-b]pyridine] the value was 1390 nM.
